Reference: BindingDB's records for patent US11046658 (Incyte, 2021)

Legend:
[1] = target: T1, Phosphatidylinositol 4,5-bisphosphate 3-kinase catalytic subunit delta isoform (Homo sapiens, UniProt O00329); assay: PI3Kdelta Scintillation Proximity Assay
T1 sequence (O00329 whole entry): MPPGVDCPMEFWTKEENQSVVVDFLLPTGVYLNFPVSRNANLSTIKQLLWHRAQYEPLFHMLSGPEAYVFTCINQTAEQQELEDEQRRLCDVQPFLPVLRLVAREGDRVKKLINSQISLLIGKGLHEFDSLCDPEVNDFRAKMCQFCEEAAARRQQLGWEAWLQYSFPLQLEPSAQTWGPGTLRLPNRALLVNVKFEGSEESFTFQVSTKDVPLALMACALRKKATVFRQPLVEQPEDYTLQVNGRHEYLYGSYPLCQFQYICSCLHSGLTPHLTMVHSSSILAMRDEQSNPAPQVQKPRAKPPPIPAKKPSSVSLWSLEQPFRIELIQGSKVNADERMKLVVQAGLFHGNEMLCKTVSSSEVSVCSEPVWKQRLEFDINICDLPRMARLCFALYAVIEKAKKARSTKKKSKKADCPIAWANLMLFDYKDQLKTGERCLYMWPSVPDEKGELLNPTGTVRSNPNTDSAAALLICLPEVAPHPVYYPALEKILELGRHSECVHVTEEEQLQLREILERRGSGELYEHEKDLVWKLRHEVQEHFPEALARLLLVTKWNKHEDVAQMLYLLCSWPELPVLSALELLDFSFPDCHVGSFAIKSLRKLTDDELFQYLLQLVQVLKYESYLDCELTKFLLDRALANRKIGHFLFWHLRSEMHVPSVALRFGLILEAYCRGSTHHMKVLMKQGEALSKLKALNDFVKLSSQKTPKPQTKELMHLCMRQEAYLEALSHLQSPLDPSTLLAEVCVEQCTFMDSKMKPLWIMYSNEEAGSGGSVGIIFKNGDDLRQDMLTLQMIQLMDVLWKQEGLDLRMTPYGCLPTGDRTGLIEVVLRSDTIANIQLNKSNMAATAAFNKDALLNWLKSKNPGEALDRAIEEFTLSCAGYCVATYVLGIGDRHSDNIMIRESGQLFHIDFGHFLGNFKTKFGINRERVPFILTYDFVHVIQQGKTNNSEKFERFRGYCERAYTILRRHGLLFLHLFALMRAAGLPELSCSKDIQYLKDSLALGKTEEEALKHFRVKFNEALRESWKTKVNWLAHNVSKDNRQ
Excerpt: (§1) Materials: [γ-33P]ATP (10 mCi/mL) and Wheat Germ Agglutinin (WGA) YSi SPA Scintillation Beads was purchased from Perkin Elmer (Waltham, Mass.). Lipid kinase substrate, D-myo-Phosphatidylinositol 4,5-bisphosphate (PtdIns(4,5)P2)D (+)-sn-1,2-di-O-octanoylglyceryl, 3-O-phospho linked (PIP2), CAS 204858-53-7, was purchased from Echelon Biosciences (Salt Lake City, Utah). PI3Kδ (p110δ/p85α) Recombinant Human Protein was purchased from Eurofins (St Charles, Mo.). ATP, MgCl2, DTT, EDTA, MOPS and CHAPS were purchased from Sigma Aldrich (St. Louis, Mo.).The kinase reaction was conducted in polystyrene 384-well Greiner Bio-one white plate from Thermo Fisher Scientific in a final volume of 25 μL. Inhibitors were first diluted serially in DMSO and added to the plate wells before the addition of other reaction components. The final concentration of DMSO in the assay was 2%. The PI3Kδ assay was carried out at room temperature in 20 mM MOPS, pH 6.7, 10 mM MgCl2, 5 mM DTT and CHAPS 0.03%. Reactions were initiated by the addition of ATP, the final reaction mixture consisted of 20 μM PIP2, 2 μM ATP, 0.5 μCi [γ-33P] ATP, 3.4 nM PI3Kδ. […] After the plate sealing, plates were shaken overnight at room temperature and centrifuged at 1500 rpm for 10 min, the radioactivity of the product was determined by scintillation counting on Topcount (PerkinElmer). […]

[2] = target: Phosphatidylinositol 4,5-bisphosphate 3-kinase catalytic subunit gamma isoform (Homo sapiens, UniProt P48736); assay: PI3K-gamma Scintillation Proximity Assay
Chain of Phosphatidylinositol 4,5-bisphosphate 3-kinase catalytic subunit gamma isoform (P48736 whole entry, canonical isoform): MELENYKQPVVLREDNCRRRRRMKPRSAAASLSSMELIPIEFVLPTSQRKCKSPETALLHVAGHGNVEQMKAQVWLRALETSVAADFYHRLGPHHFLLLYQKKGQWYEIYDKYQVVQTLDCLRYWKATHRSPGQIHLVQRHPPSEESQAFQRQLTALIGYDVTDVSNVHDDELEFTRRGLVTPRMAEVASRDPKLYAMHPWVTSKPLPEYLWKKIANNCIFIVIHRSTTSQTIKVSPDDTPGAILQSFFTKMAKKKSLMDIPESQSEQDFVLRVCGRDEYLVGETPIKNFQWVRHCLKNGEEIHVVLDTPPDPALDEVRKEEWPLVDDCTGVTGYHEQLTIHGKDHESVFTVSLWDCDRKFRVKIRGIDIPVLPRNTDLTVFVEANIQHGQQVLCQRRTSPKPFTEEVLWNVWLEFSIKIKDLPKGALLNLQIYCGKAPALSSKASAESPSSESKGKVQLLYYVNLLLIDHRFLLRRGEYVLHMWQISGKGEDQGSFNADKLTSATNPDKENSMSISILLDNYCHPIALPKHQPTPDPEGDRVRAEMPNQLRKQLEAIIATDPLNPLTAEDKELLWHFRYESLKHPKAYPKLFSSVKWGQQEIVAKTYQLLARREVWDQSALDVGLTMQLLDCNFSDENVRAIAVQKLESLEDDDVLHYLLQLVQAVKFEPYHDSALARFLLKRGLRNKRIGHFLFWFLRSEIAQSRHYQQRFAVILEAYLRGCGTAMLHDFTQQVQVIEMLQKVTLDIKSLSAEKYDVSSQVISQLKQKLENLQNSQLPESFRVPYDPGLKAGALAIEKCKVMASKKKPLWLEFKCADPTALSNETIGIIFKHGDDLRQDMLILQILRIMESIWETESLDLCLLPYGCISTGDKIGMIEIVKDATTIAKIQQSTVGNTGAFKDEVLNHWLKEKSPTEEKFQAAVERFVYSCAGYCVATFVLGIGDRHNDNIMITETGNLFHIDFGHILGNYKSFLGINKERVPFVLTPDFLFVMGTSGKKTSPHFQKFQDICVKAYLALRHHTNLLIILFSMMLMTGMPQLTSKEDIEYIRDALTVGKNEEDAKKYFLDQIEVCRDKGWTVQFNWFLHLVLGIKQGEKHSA
Excerpt: as §1, with “PI3Kγ (p110γ)” for “PI3Kδ (p110δ/p85α)”, “Life technology (Grand Island, N.Y.).” for “Eurofins (St Charles, Mo.).”, “PI3Kγ” for “PI3Kδ”, “13” for “3.4”, “PI3Kγ.” for “PI3Kδ.”, “(Perkin-Elmer).” for “(PerkinElmer).”

C#Cc1ccccc1N1CCN(c2nc(-c3cc(C(O)(C(N)=O)C(F)(F)F)ccc3C)cnc2N)CC1 (configuration not stated) [US11046658, Example 122]
IC50 [1]: < 100 nM
IC50 [2]: < 100 nM
